{"source": "patent US10363231B2", "about": "“Compounds and methods of treating ocular disorders” (CASE WESTERN RESERVE UNIVERSITY, priority 2014, dated 2019)", "key": {"[1]": {"molecular_target": "T1, RPE65 (Bos taurus, UniProt Q28175)", "T1 construct": "from tissue; host or cells: bovine retinal pigment epithelium (RPE) microsomes", "T1 sequence (Q28175 whole entry)": "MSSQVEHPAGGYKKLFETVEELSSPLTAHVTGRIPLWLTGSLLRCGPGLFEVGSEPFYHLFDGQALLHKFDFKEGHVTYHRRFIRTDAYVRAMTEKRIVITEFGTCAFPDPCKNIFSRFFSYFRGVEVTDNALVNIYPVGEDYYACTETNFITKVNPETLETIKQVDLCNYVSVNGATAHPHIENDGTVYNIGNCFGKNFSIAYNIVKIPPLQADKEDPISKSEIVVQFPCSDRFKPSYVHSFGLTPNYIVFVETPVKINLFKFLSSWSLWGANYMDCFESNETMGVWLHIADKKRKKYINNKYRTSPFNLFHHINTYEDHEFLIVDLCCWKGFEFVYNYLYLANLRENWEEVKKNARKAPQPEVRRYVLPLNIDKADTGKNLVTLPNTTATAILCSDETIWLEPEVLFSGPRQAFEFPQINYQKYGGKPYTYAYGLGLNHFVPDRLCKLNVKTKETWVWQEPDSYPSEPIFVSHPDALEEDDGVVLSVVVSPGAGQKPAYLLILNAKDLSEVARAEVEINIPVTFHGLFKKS", "test": "Retinoid isomerase activity assay (11-cis-retinol production in RPE microsomes)", "format": "biochemical, Bovine", "details": "for IC50: primary amine, decline in 11-cis-retinol production in RPE microsomes, read-out: Inhibition of RPE65", "procedure": "Bovine RPE microsomes were isolated from RPE homogenates by differential centrifugation as previously described. The resulting microsomal precipitate was resuspended in 10 mM Bis-Tris propane/HCl buffer, pH 7.4, to achieve a total protein concentration of […]. Then the mixture was placed in a quartz cuvette and irradiated for 6 min at 4° C. with a ChromatoUVE transilluminator (model TM-15; UVP) to eliminate residual retinoids. After irradiation, DTT was added to the RPE microsomal mixture to achieve a final concentration of 5 mM.\n[…] The resulting mixture was pre incubated at room temperature for 5 min. Then 1 μl of all-trans-retinol (in DMF, final concentration 20 μM) was added. The resulting mixture was incubated at 37° C. for 15 min to 2 h. The reaction was quenched by adding 300 μl of methanol, and products were extracted with 300 μl of hexanes. Production of 11-cis-retinol was quantified by normal phase HPLC with 10% (v/v) ethyl acetate in hexanes as the eluent at a flow rate of 1.4 ml·min^−1. Retinoids were detected by monitoring their absorbance at 325 nm and quantified based on a standard curve representing the relationship between the amount of 11-cis-retinol and the area under the corresponding chromatographic peak.\nPrimary amines of compounds derived from the aldehydes were subsequently tested for their ability to inhibit the RPE65-dependent retinoid isomerization reaction in dose- and time dependent reactions as exemplified by QEB-B-001 (FIG. 3B). Amines were incubated with RPE microsomes in the presence of all-trans-retinol and the 11-cis-retinoid binding protein, CRALBP.\nProgress of the enzymatic reaction was monitored by HPLC separation of retinoids and quantification of 11-cis-retinol with a decrease of 11-cis-retinol production reflecting inhibition of RPE65 by a tested amine. […] This moderate inhibition could be enhanced by shortening the polyene chain length (TEA amines) or diminished by introducing an extra positive charge into the tested compounds (QEA-G amines)."}, "[2]": {"system": "Abca4^−/−Rdh8^−/− mice", "test": "Light-induced acute retinal degeneration in Abca4−/−Rdh8−/− mice (OCT, 11-cis-retinal, ERG)", "format": "in vivo", "details": "for OCT imaging of the retina: 3 d after bleaching; for average ONL thickness: OCT 3 d after bleaching", "procedure": "Abca4^−/−Rdh8^−/− double knockout mice were generated as previously described. Mice were housed in the animal facility at the School of Medicine, Case Western Reserve University, where they were maintained under either complete darkness or in a 12-h light (˜300 lux) and 12-h dark cycle. All tested primary amines were suspended in 100 μl of soybean oil with less than 10% (v/v) DMSO and were administered by oral gavage with a 22-gauge feeding needle. Experimental manipulations in the dark were done under dim red light transmitted through a Kodak No. 1 safelight filter (transmittance >560 nm). All animal procedures and experiments were approved by the Case Western Reserve University Animal Care Committees and conformed to recommendations of the American Veterinary Medical Association Panel on Euthanasia and the Association of Research for Vision and Ophthalmology.\nAfter dark adaptation for 24 h, 4-week-old male or female Abca4^−/−Rdh8^−/− mice with pupils dilated by 1% tropicamide were exposed to fluorescent light (10,000 lx; 150 W spiral lamp, Commercial Electric) for 1 h in a white paper bucket (Papersmith), and then kept in the dark for an additional 3 d. Development of retinal degeneration was then examined by ultra-high resolution spectral-domain OCT (SDOCT; Bioptigen) and ERGs as previously described.\nThen animals were euthanized and their eyes were collected and homogenized in 10 mM sodium phosphate buffer, pH 7.4, containing 50% methanol (v/v) and 40 mM hydroxylamine. The resulting mixture was extracted with 4 ml of hexanes. Extracts were dried in vacuo, reconstituted in 300 μl of hexanes and 100 μl of the extract was injected into an HPLC for analysis with 10% (v/v) ethyl acetate in hexanes.\nFor practical reasons, only eight of these leading compounds (QEA-B-001-NH2, B-002-NH2, C-001-NH2, C-003-NH2, C006-NH2, E-002-NH2, TEA-B-002-NH2, and C00-2-NH2) along with retinylamine as a control were selected for further testing in Abca4^−/−Rdh8^−/− mice, an animal model for light-induced retinal degeneration (Table 2). Additionally, two novel amines with moderate inhibition of RPE65 (QEA-A-006-NH2 and QEA-B-003-NI 12) and one with strong inhibition (QEA-A-005-NH2) were added to the first test group for comparison. Mice were gavaged with 1 mg of a test compound and then kept in the dark for 24 h prior to being exposed to bright light (˜10,000 lux) for 1 h. Retinal damage was assessed with OCT that measured the thickness of the outer nuclear layer and by quantification of tissue 11-cis retinal levels. An example is shown for imaging results in FIG. 4A and for 11-cis-retinal quantification in FIG. 4B. Additionally, extracts of livers obtained from treated mice were analyzed by HPLC to estimate the amounts of corresponding amides (FIG. 4C).\nOnce the time course of retinylamine's inhibitory effect was established, we investigated the correlation between the level of inhibition and the protective effect on the retina. Four week old Abca4^−/−Rdh8^−/− mice were gavaged with 0.1, 0.2, and 0.5 mg of retinylamine, respectively, and kept in the dark for 24 h. Mice then were bleached with 10,000 lux bright light for 1 h. Measured as described above, the recovery of visual chromophore was inhibited by about 40%, 80%, and 95%, respectively by these tested drug doses (FIGS. 5B and 5C). Bleached mice were kept in the dark for 3 d, and then imaged by OCT (FIGS. 6A and 6B). […] The average ONL thickness in the latter group of mice was 51.1±5.8 μm, well within the range of healthy retinas. […] Their average ONL thickness was 34.4±17.4 μm. […] In an equivalent experiment, mice were kept in the dark for 7 days prior to quantification of visual chromophore levels. (Amounts of 11-cis-retinal reflect the concentration of rhodopsin and thus can be used to verify the health of photoreceptor cells)."}, "[3]": {"system": "Abca4^−/−Rdh8^−/− mice", "test": "Light-induced acute retinal degeneration in Abca4−/−Rdh8−/− mice (OCT, 11-cis-retinal, ERG)", "format": "in vivo", "details": "2 mg; dark 24 h, then 10,000 lux 1 h"}, "[4]": {"system": "WT mice", "test": "Visual chromophore recovery assay (inhibition of the visual cycle in vivo)", "details": "for inhibition of the recovery of visual chromophore: 24 h after gavage; for recovery of 11-cis-retinal in the eye, of the pre-bleached level: at 6 h after bleaching"}, "[5]": {"details": "0.1 mg, dark 7 days after bleaching"}, "[6]": {"details": "0.2 mg, dark 7 days after bleaching"}}, "note": "Entries after “also recorded” stand apart in the source; their conditions may differ."}
{"smiles": "CC1=C(/C=C/C(C)=C/C=C/C(C)=C/CN)C(C)(C)CCC1", "note": "[QEA-A-001-NH2, retinylamine]", "values": [{"measurement": "IC50", "setting": "[1]", "value": "< 10", "unit": "µM"}, {"measurement": "protection against retinal degeneration", "setting": "[2]; 0.1 mg dose, bright light exposure", "value": "failed to protect"}, {"measurement": "OCT imaging of the retina", "setting": "[2]; 0.1 mg", "value": "severe retinal degeneration"}, {"measurement": "11-cis-retinal levels", "setting": "[2]; [5]", "value": "323±48", "unit": "pmol/eye"}, {"measurement": "ERG responses", "setting": "[2]; [5]", "value": "attenuated ERG responses"}, {"measurement": "OCT imaging of the retina", "setting": "[2]; 0.2 mg", "value": "partially protected"}, {"measurement": "average ONL thickness", "setting": "[2]; 0.2 mg", "value": "34.4±17.4", "unit": "μm"}, {"measurement": "11-cis-retinal levels", "setting": "[2]; [6]", "value": "445±37", "unit": "pmol/eye"}, {"measurement": "ERG scotopic a wave responses", "setting": "[2]; [6]", "value": "same ERG scotopic a wave responses as unbleached control mice"}, {"measurement": "OCT imaging of the retina", "setting": "[2]; 0.5 mg", "value": "clear intact ONL image"}, {"measurement": "average ONL thickness", "setting": "[2]; 0.5 mg", "value": "51.1±5.8", "unit": "μm"}, {"measurement": "ERG scotopic a wave responses", "setting": "[2]; 0.5 mg, dark 7 days after bleaching", "value": "same ERG scotopic a wave responses as unbleached control mice"}, {"measurement": "protection of ONL (averaged ONL thickness by OCT)", "setting": "[3]", "value": "protected"}, {"measurement": "inhibition of the recovery of visual chromophore", "setting": "[4]; 0.1 mg", "value": "about 40%"}, {"measurement": "inhibition of the recovery of visual chromophore", "setting": "[4]; 0.2 mg", "value": "~80", "unit": "%"}, {"measurement": "recovered 11-cis-retinal", "setting": "[4]; 0.2 mg, day 3 after administration", "value": "61±2.2", "unit": "%"}, {"measurement": "inhibitory effect on 11-cis-retinal regeneration", "setting": "[4]; 0.2 mg, day 7", "value": "nearly disappeared"}, {"measurement": "recovery of 11-cis-retinal in the eye, of the pre-bleached level", "setting": "[4]; 0.2 mg, light 2 h after administration", "value": "50±13", "unit": "%"}, {"measurement": "recovery of 11-cis-retinal in the eye, of the pre-bleached level", "setting": "[4]; 0.2 mg, light 24 h after administration", "value": "22±5.0", "unit": "%"}, {"measurement": "inhibition of the recovery of visual chromophore", "setting": "[4]; 0.5 mg", "value": "~95", "unit": "%"}, {"measurement": "recovery of 11-cis-retinal", "setting": "[4]; 0.5 mg, 7 days after administration", "value": "56±9.1", "unit": "%"}, {"measurement": "time point with the strongest inhibition of the retinoid cycle", "setting": "[4]; 0.1 to 0.5 mg, gavage 2 h to 7 days before light", "value": 24, "unit": "h"}, {"measurement": "duration of inhibition of the retinoid cycle", "setting": "[4]; gavage 2 h to 7 days before light, 11-cis-retinal 6 h after bleaching", "value": "more than 7 days"}]}
{"smiles": "CC(/C=C/C=C(/C=C/C1=CCCCC1)C(C)(C)C)=C\\CN", "note": "[QEA-B-001-NH2]", "values": [{"measurement": "inhibition of RPE65", "setting": "[1]", "value": "modest or non-inhibitor; also recorded: did not inhibit"}, {"measurement": "IC50", "setting": "[1]", "value": "> 200", "unit": "µM"}, {"measurement": "prevention of light-induced retinal degeneration", "setting": "[2]; gavaged with 1 mg, dark 24 h, ~10,000 lux 1 h, OCT", "value": "inability to prevent"}]}
